Measurements reported in patent US9944602B2, “Piperidinone herbicides” (E. I. DU PONT DE NEMOURS AND COMPANY, priority 2014, dated 2018).

Columns and labels:
Format in all cases: in vivo
[1] = test system: barnyardgrass (Echinochloa crus-galli); test: Test A preemergence barnyardgrass; settings: 0 to 100 scale; for Barnyardgrass plant response rating: 125 g ai/ha, 0 no effect, 100 complete control; for Plant response rating, Barnyardgrass: 500 g ai/ha, 0 is no effect, 100 is complete control
Method in brief: (§1)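 Scores reflect visual comparison with untreated controls after ~10 d in the greenhouse (0 none, 100 complete control). Treatment was a surfactant-containing non-phytotoxic solvent formulation, sprayed onto soil after seeding or onto seedlings at one to two leaves, 2–10 cm tall.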

[2] = test system: crabgrass, large (large crabgrass, Digitaria sanguinalis); test: Test A preemergence crabgrass, large; settings: 0 to 100 scale; for Crabgrass, Large plant response rating: 125 g ai/ha, 0 no effect, 100 complete control; for Plant response rating, Crabgrass, Large: 500 g ai/ha, 0 is no effect, 100 is complete control
Excerpt: (§2) Seeds of plant species selected from barnyardgrass (Echinochloa crus-galli), kochia (Kochia scoparia), ragweed (common ragweed, Ambrosia elatior), ryegrass, Italian (Italian ryegrass, Lolium multiflorum), crabgrass, large (large crabgrass, Digitaria sanguinalis), foxtail, giant (giant foxtail, Setaria faberii), morningglory (Ipomoea spp.), pigweed (Amaranthus retroflexus), velvetleaf (Abutilon theophrasti), wheat (Triticum aestivum), and corn (Zea mays) were planted into a blend of loam soil and sand and treated preemergence with a directed soil spray using test chemicals formulated in a non-phytotoxic solvent mixture which included a surfactant.
(§3) At the same time, plants selected from these crop and weed species and also blackgrass (Alopecurus myosuroides), and galium (catchweed bedstraw, Galium aparine) were planted in pots containing the same blend of loam soil and sand and treated with postemergence applications of test chemicals formulated in the same manner. Plants ranged in height from 2 to 10 cm and were in the one- to two-leaf stage for the postemergence treatment. Treated plants and untreated controls were maintained in a greenhouse for approximately 10 d, after which time all treated plants were compared to untreated controls and visually evaluated for injury. Plant response ratings, summarized in Table A, are based on a 0 to 100 scale where 0 is no effect and 100 is complete control. A dash (-) response means no test result.

[3] = test system: foxtail, giant (giant foxtail, Setaria faberii); test: Test A preemergence foxtail, giant; settings: 0 to 100 scale, 0 no effect, 100 complete control
Method in brief: as §1

[4] = test system: morningglory (Ipomoea spp.); test: Test A preemergence morningglory; settings: 0 to 100 scale, 0 no effect, 100 complete control
Excerpt: as §2, §3

[5] = test system: pigweed (Amaranthus retroflexus); test: Test A preemergence pigweed; settings: 0 to 100 scale, 0 no effect, 100 complete control
Method in brief: as §1

[6] = test system: velvetleaf (Abutilon theophrasti); test: Test A preemergence velvetleaf; settings: 0 to 100 scale, 0 no effect, 100 complete control
Excerpt: as §2, §3

[7] = test system: wheat (Triticum aestivum); test: Test A preemergence wheat; settings: 0 to 100 scale, 0 no effect, 100 complete control
Excerpt: as §2, §3

corn (Zea mays) [8] = test: Test A preemergence corn; settings: 0 to 100 scale; for Corn plant response rating: 125 g ai/ha, 0 no effect, 100 complete control; for Plant response rating, Corn: 500 g ai/ha, 0 is no effect, 100 is complete control
Excerpt: as §2, §3

[9] = test system: barnyardgrass (Echinochloa crus-galli); test: Test A postemergence barnyardgrass; settings: 0 to 100 scale, 0 is no effect, 100 is complete control
Method in brief: as §1

[10] = test system: crabgrass, large (large crabgrass, Digitaria sanguinalis); test: Test A postemergence crabgrass, large; settings: 0 to 100 scale, 0 is no effect, 100 is complete control
Excerpt: as §2, §3

[11] = test system: foxtail, giant (giant foxtail, Setaria faberii); test: Test A postemergence foxtail, giant; settings: 0 to 100 scale, 0 is no effect, 100 is complete control
Method in brief: as §1

[12] = test system: morningglory (Ipomoea spp.); test: Test A postemergence morningglory; settings: 0 to 100 scale, 0 is no effect, 100 is complete control
Excerpt: as §2, §3

[13] = test system: pigweed (Amaranthus retroflexus); test: Test A postemergence pigweed; settings: 0 to 100 scale, 0 is no effect, 100 is complete control
Method in brief: as §1

[14] = test system: velvetleaf (Abutilon theophrasti); test: Test A postemergence velvetleaf; settings: 0 to 100 scale, 0 is no effect, 100 is complete control
Excerpt: as §2, §3

[15] = test system: wheat (Triticum aestivum); test: Test A postemergence wheat; settings: 0 to 100 scale, 0 is no effect, 100 is complete control
Method in brief: as §1

corn (Zea mays) [16] = test: Test A postemergence corn; settings: 0 to 100 scale, 0 is no effect, 100 is complete control
Method in brief: as §1

rice (Oryza sativa) = test: Test B flooded paddy test rice; settings: Table B, Flood, 250 g ai/ha, scale 0 to 100
Method in brief: (§4)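 Once seedlings reached two leaves, pots were flooded 3 cm deep and treated via the paddy water, which remained at that level. Evaluation was visual, against controls, after 13 to 15 d under greenhouse conditions.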

[17] = test system: sedge, umbrella (small-flower umbrella sedge, Cyperus difformis); test: Test B flooded paddy test sedge, umbrella; settings: Table B, Flood, 250 g ai/ha, scale 0 to 100
Method in brief: as §4

[18] = test system: ducksalad (Heteranthera limosa); test: Test B flooded paddy test ducksalad; settings: Table B, Flood, 250 g ai/ha, scale 0 to 100
Method in brief: as §4

[19] = test system: barnyardgrass (Echinochloa crus-galli); test: Test B flooded paddy test barnyardgrass; settings: Table B, Flood, 250 g ai/ha, scale 0 to 100
Method in brief: as §4

Structure (SMILES)	Barnyardgrass plant response rating [1]	Plant response rating, Barnyardgrass [1]	Crabgrass, Large plant response rating [2]	Plant response rating, Crabgrass, Large [2]	Foxtail, Giant plant response rating ([3]; 125 g ai/ha)	Foxtail, Giant plant response rating ([3]; 500 g ai/ha)	Morningglory plant response rating ([4]; 125 g ai/ha)	Morningglory plant response rating ([4]; 500 g ai/ha)	Pigweed plant response rating ([5]; 125 g ai/ha)	Pigweed plant response rating ([5]; 500 g ai/ha)	Velvetleaf plant response rating ([6]; 125 g ai/ha)	Velvetleaf plant response rating ([6]; 500 g ai/ha)	Wheat plant response rating ([7]; 125 g ai/ha)	Wheat plant response rating ([7]; 500 g ai/ha)	Corn plant response rating (corn (Zea mays) [8])	Plant response rating, Corn (corn (Zea mays) [8])	Plant response rating, Barnyardgrass ([9]; 125 g ai/ha)	Plant response rating, Barnyardgrass ([9]; 500 g ai/ha)	Plant response rating, Crabgrass, Large ([10]; 125 g ai/ha)	Plant response rating, Crabgrass, Large ([10]; 500 g ai/ha)	other results
O=C1NCCC(c2ccccc2)C1C(=O)Nc1ccccc1C(F)(F)F (racemic) [Compound 2]	0	20	70	90	10	70	0	0	0	0	0	0	0	0	0	0	0	0	0	10	Plant response rating, Foxtail, Giant ([11]; 125 g ai/ha): 0; Plant response rating, Foxtail, Giant ([11]; 500 g ai/ha): 0; Plant response rating, Morningglory ([12]; 125 g ai/ha): 0; Plant response rating, Morningglory ([12]; 500 g ai/ha): 0; Plant response rating, Pigweed ([13]; 125 g ai/ha): 0; Plant response rating, Pigweed ([13]; 500 g ai/ha): 0; Plant response rating, Velvetleaf ([14]; 125 g ai/ha): 0; Plant response rating, Velvetleaf ([14]; 500 g ai/ha): 0; Plant response rating, Wheat ([15]; 125 g ai/ha): 0; Plant response rating, Wheat ([15]; 500 g ai/ha): 0; Plant response rating, Corn (corn (Zea mays) [16]; 125 g ai/ha): 0; Plant response rating, Corn (corn (Zea mays) [16]; 500 g ai/ha): 0; Plant response rating (rice (Oryza sativa)): 0; Plant response rating [17]: 0; Plant response rating [18]: 0; Plant response rating [19]: 0
O=C1NCCC(c2ccccc2)C1C(=O)Nc1ccccc1F (racemic) [Compound 3]	0	0	0	30	0	0	0	0	0	0	0	0	0	20	0	0	0	0	0	0	Plant response rating, Foxtail, Giant ([11]; 125 g ai/ha): 0; Plant response rating, Foxtail, Giant ([11]; 500 g ai/ha): 0; Plant response rating, Morningglory ([12]; 125 g ai/ha): 0; Plant response rating, Morningglory ([12]; 500 g ai/ha): 0; Plant response rating, Pigweed ([13]; 125 g ai/ha): 0; Plant response rating, Pigweed ([13]; 500 g ai/ha): 0; Plant response rating, Velvetleaf ([14]; 125 g ai/ha): 0; Plant response rating, Velvetleaf ([14]; 500 g ai/ha): 0; Plant response rating, Wheat ([15]; 125 g ai/ha): 0; Plant response rating, Wheat ([15]; 500 g ai/ha): 0; Plant response rating, Corn (corn (Zea mays) [16]; 125 g ai/ha): 0; Plant response rating, Corn (corn (Zea mays) [16]; 500 g ai/ha): 0; Plant response rating (rice (Oryza sativa)): 0; Plant response rating [17]: 0; Plant response rating [18]: 0; Plant response rating [19]: 0
O=C1NCCC(c2ccc(F)c(F)c2)C1C(=O)Nc1ccccc1C(F)(F)F (racemic) [Compound 6]	60	80	90	90	60	90	0	0	0	0	0	0	0	0	0	0	0	50	50	80	Plant response rating, Foxtail, Giant ([11]; 125 g ai/ha): 30; Plant response rating, Foxtail, Giant ([11]; 500 g ai/ha): 70; Plant response rating, Morningglory ([12]; 125 g ai/ha): 0; Plant response rating, Morningglory ([12]; 500 g ai/ha): 0; Plant response rating, Pigweed ([13]; 125 g ai/ha): 0; Plant response rating, Pigweed ([13]; 500 g ai/ha): 30; Plant response rating, Velvetleaf ([14]; 125 g ai/ha): 0; Plant response rating, Velvetleaf ([14]; 500 g ai/ha): 0; Plant response rating, Wheat ([15]; 125 g ai/ha): 0; Plant response rating, Wheat ([15]; 500 g ai/ha): 0; Plant response rating, Corn (corn (Zea mays) [16]; 125 g ai/ha): 0; Plant response rating, Corn (corn (Zea mays) [16]; 500 g ai/ha): 0; Plant response rating (rice (Oryza sativa)): 0; Plant response rating [17]: 0; Plant response rating [18]: 60; Plant response rating [19]: 0
